Legend:
Macrophomina phaseolina = assay: Mycelial colony growth on flutriafol-amended PDA; type: cell-based; details: 1x; for Dia (mm) 1 day: untreated 28.2; for Dia (mm) 3 days / Dia (mm) 5 days / Dia (mm) 7 days: untreated 40
Method: Inhibition of Macrophomina phaseolina (charcoal rot) was tested in the following example: The flutriafol composition used in the example was TOPGUARD (125 g/L flutriafol SC), a commercially available product.
Each pathogen was grown out on fresh potato dextrose agar (commercial PDA), assessed and used to seed 2× autoclaved rice for inoculums development. At 7-10 days, two infested rice grains with the pathogen was placed at equal distances on flutriafol-amended PDA and incubated at 27-29° C. Mycelial colony diameter from each rice grain was measured at 1, 3, 5 and 7 days from grain placement. The included tables and data sets illustrate the differences in mycelia growth in response to various concentrations of the fungicide.

charcoal rot = assay: Strawberry field trial for control of charcoal rot (infected plants, yield); type: in vivo; details: applied either surface incorporated or via buried drip

OC(Cn1cncn1)(c1ccc(F)cc1)c1ccccc1F (racemic) [flutriafol, (RS)-2,4′-difluoro-α-(1H-1,2,4-triazol-1-ylmethyl)benzhydryl alcohol]
Dia (mm) 1 day (Macrophomina phaseolina; 0.01 ppm): 25.5 mm | Dia (mm) 3 days (Macrophomina phaseolina; 0.01 ppm): 40 mm | Dia (mm) 5 days (Macrophomina phaseolina; 0.01 ppm): 40 mm | Dia (mm) 7 days (Macrophomina phaseolina; 0.01 ppm): 40 mm | Dia (mm) 1 day (Macrophomina phaseolina; 0.1 ppm): 22.3 mm | Dia (mm) 3 days (Macrophomina phaseolina; 0.1 ppm): 40 mm | Dia (mm) 5 days (Macrophomina phaseolina; 0.1 ppm): 40 mm | Dia (mm) 7 days (Macrophomina phaseolina; 0.1 ppm): 40 mm | Dia (mm) 1 day (Macrophomina phaseolina; 1 ppm): 13.9 mm | Dia (mm) 3 days (Macrophomina phaseolina; 1 ppm): 38.6 mm | Dia (mm) 5 days (Macrophomina phaseolina; 1 ppm): 40 mm | Dia (mm) 7 days (Macrophomina phaseolina; 1 ppm): 40 mm | Dia (mm) 1 day (Macrophomina phaseolina; 10 ppm): 0 mm | Dia (mm) 3 days (Macrophomina phaseolina; 10 ppm): 3.5 mm | Dia (mm) 5 days (Macrophomina phaseolina; 10 ppm): 3.5 mm | Dia (mm) 7 days (Macrophomina phaseolina; 10 ppm): 5.1 mm | Dia (mm) 1 day (Macrophomina phaseolina; 100 ppm): 0 mm | Dia (mm) 3 days (Macrophomina phaseolina; 100 ppm): 0 mm | Dia (mm) 5 days (Macrophomina phaseolina; 100 ppm): 0 mm | Dia (mm) 7 days (Macrophomina phaseolina; 100 ppm): 0 mm | Dia (mm) 1 day (Macrophomina phaseolina; 250 ppm, mycelial colony diameter, TOPGUARD 125 g/L SC in PDA): 0 mm | Dia (mm) 3 days (Macrophomina phaseolina; 250 ppm): 0 mm | Dia (mm) 5 days (Macrophomina phaseolina; 250 ppm): 0 mm | Dia (mm) 7 days (Macrophomina phaseolina; 250 ppm): 0 mm | effect on charcoal rot (charcoal rot): significantly reduced charcoal rot
